Patent US20090004683A1, “Indicator Agent for Noninflammatory Stress Response and Use Thereof” (priority 2004, published 2009)

What was measured:
Type in all cases: in vivo, mouse
[1] = system: LH; assay: Plasma LH after IL-18 administration; conditions: C57B/6 mice, 1.5 μg IL-18 intravenously, 1 hour after administration; FIG. 13C
Experimental: (§1) 1.5 μg of IL-18 prepared by genetic recombination technology was intravenously injected to C57B/6 mice, and thereafter ACTH, FSH and LH levels in blood were examined. […] FIGS. 13B and 13C show FSH and LH levels in plasma collected from mice 1 hour after IL-18 administration. It was shown that the concentrations of FSH and LH in plasma rose with the administration of IL-18.

[2] = system: FSH; assay: Plasma FSH after IL-18 administration; conditions: C57B/6 mice, 1.5 μg IL-18 intravenously, 1 hour after administration; FIG. 13B
Experimental: as §1

[3] = system: ACTH; assay: Blood ACTH after IL-18 administration; conditions: C57B/6 mice, 1.5 μg IL-18 intravenously; FIG. 13A
Experimental: as §1

IL-18: IL-18 prepared by genetic recombination technology
rose: concentration of LH in plasma [1] | concentration of FSH in plasma [2] | blood ACTH concentration [3]
